# Reference: patent US20220304356A1, “FUNCTIONAL FOOD COMPOSITIONS AND COSMETIC COMPOSITIONS COMPRISING GALACTO-OLIGOSACCHARIDES, OR GALACTOOLIGOSACCHARIDES AND COLLAGEN TRIPEPTIDE FOR IMPROVING IMMUNE FUNCTIONS AND SKIN CONDITION” (NEO CREMAR CO., LTD., priority 2020, published 2022)
# Legend:
# Assay type in all cases: in vivo, SKH-1 hairless mice
# [1] = test system: dorsal skin of the mice, irradiated with ultraviolet light; assay: Skin water-holding capacity (Multi Probe Adapter MPA 6); details: UVB-irradiated mice, oral 8 weeks, compared with CON
# Protocol: (§1) A total of seven experimental groups (six animals per group) were defined as a normal control group (normal, not UVB-induced), a negative control group (control, UVB-irradiated), a GOS alone treatment group (GOS 200 mg/kg, UVB-irradiated) and a CTP alone treatment group (CTP 200 mg/kg, UVB-irradiated), a GOS/CTP 1:3 mixed treatment group (GOS/CTP 50:150 mg/kg, UVB-irradiated), a GOS/CTP 1:1 mixed treatment group (100:100 mg/kg, UVB-irradiated), and a GOS/CTP 3:1 mixed treatment group (GOS/CTP 150:50 mg/kg, UVB-irradiated).
# (§2) The mice were acclimated for one week, and then photo-aging was induced in the mice of six groups except for the normal control group (NOR) by exposing their dorsal skin to ultraviolet light three times a week for 8 weeks through the ultraviolet irradiation device (BLX-E254, Vilber Lourmat, France) equipped with the UVB-ultraviolet lamp (T-8M; Vilber Lourmat, France) (Hong et al., 2015). As for the dosage of ultraviolet irradiation, the irradiation dosage inside the ultraviolet irradiation device was measured by the UV light meter (UV-340; Lutron, Taiwan) and adjusted, and then the UVB dosage was controlled as shown in Table 1. […]
# [2] = test system: dorsal skin of the mice, irradiated with ultraviolet light; assay: Erythema value; details: UVB-irradiated mice, oral 8 weeks, compared with CON; no significant difference
# Protocol: as §1, §2
# MMP2 = assay: qRT-PCR of skin tissue, MMP 2; details: compared with CON
# Protocol: (§3) In order to investigate the effects of the compositions of the present disclosure on the expression of skin condition-related genes, the present inventors measured the expression levels of collagen type I, matrix metalloproteinase (MMP) 2/3/9, TIMP1/2, hyaluronidase (HYAL), and NF-K in comparison with GAPDH.
# (§4) Specifically, about 100 mg of the skin tissue was collected from each mouse of the experimental groups administered the compositions of the present disclosure, and total RNA was isolated using TRIzol reagent. To the isolated RNA was added 50 μM Oligo-(dT) primer and 10 mM dNTP mix, followed by reaction at […] for 5 minutes, and then 5×RT Buffer, 0.1 M DTT, RNaseOUT, SuperScript III, and 25 mM MgCl2 were added with mixing, followed by reaction under conditions of 50° C. for 50 minutes and 85° C. for 5 minutes. RNase H was added and incubated at 37° C. for 20 minutes, thereby synthesizing cDNA from mRNA. To perform POR, 1 μL of the synthesized cDNA was mixed with primers, SYBR green gene expression master mix, and DEPO water, followed by qPCR. The expression level of each target gene was indicated as a relative expression level compared with the NOR group.
# TIMP1 = assay: qRT-PCR of skin tissue, TIMP 1; details: compared with CON
# Protocol: as §3, §4
# [3] = Short-chain fatty acid (SCFA) analysis of caecum using GC
# Protocol: The caecum of the mouse was harvested and extracted with methanol, and then the extract was analyzed for SCFA by using gas chromatography (Agilent Technologies, CA, USA) equipped with GC column (DB-FFAP 123-3253, 50 m×0.32 mm×[…]). The column temperature was set to be maintained at 100° C. for 1 minute, raised to 180° C. at a rate of 8° C./min, then raised to 200° C. at a rate of 20° C./min, and then stagnant at 200° C. for 5 min. The SCFA contents in the caecum were analyzed through the standard materials of acetic acid, propionic acid, and butyric acid.
# intestinal microflora = assay: Intestinal microflora change analysis (16S rRNA sequencing of caecum); details: photo-aging model, oral
# Excerpt: The caecum of the mouse was harvested, and subjected to extraction using the i-genome clinic DNA extraction kit. The 16S rRNA library was constructed through the protocol of Illumina 16S V3˜V4 Amplicon (Illumina, San Diego, Calif., USA). The 16S rRNA V3-V4 region was amplified by the first polymerase chain reaction (PCR-1) using the DNA extract, and the PCR product was purified using Agencourt AMPure XP Beads (Beckman Coulter, Inc., Pasadena, Calif., USA), and the washed amplicons were quantified. The PCR product was used as a template for the second PCR (PCR-II) with Illumina dual index adapter sequence, and the final amplicon library was sequenced using the v3, 600 cycle kit and 301 base paired-end chemistry. Sequence data analysis was performed through QIIME 2 software, and then quality filtering was performed. […] The operational taxonomic units (OTUs) of the sequence were analyzed, and the alpha diversity analysis included the Richness, Shannon Index, and Abundance-based Coverage Estimator (ACE) indexes. […] The Kruskal-Wallis test was performed to analyze the diversity of the intestinal microflora and the difference in relative abundance, and the difference in beta diversity was analyzed by the ANOSIM and permutational multivariate analysis of variance (PERMANOVA) tests.
substance,measurement,setting,value
collagen tripeptide [CTP],change in water-holding capacity before and after ultraviolet irradiation,[1],significantly increased
same,change in erythema value before and after ultraviolet irradiation,[2],tended to decrease
same,gene expression level of MMP 2,MMP2,significantly decreased
same,gene expression level of TIMP 1,TIMP1,significantly increased
same,content of butyric acid,[3],significantly increased
same,content of valeric acid,[3]; compared with CON,significant increase
same,total short-chain fatty acid content,[3]; compared with CON,tendency of increase
same,content of propionic acid,"[3]; compared with CON, no significant difference",tended to increase
same,Firmicutes/Bacteroidetes ratio,intestinal microflora,tended to increase
